Results from US20260116845A1, “LIPIDS AND COMPOSITIONS THEREOF” (Kernal Biologics, Inc., priority 2023, published 2026).

Experiments:
AML12 Cell Line = assay: Transfection of AML12 Cell Line with FLuc mRNA LNPs (ONE-Glo EX luciferase signal); assay type: cell-based; settings: 200 ng Fluc mRNA-LNP, 24 hours
In short: (§1)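 Firefly luciferase luminescence measured 24 h after transfection with 200 ng mRNA-LNP per well in Opti-MEM. Seeding: 5,000 cells/well for B16F10 and MC38.K, 20,000 for AML12. LNPs were pre-incubated 30 min with mouse serum; mRNA content determined by RiboGreen.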

Liver = assay: Ex-vivo luminescence signal from liver after IV Fluc mRNA LNPs in CD1 mice (IVIS); settings: tail vein 1.0 mg/kg Day 0 and Day 2, imaging 18 hours after second dose; for Total Liver Tissue Luciferin Signal (Photons/s) In Vivo-Cd1: Table 5; for Total Liver Tissue Luciferin Signal (Photons/s) Ex-vivo - CD1: Table 4
Spleen = assay: Ex-vivo luminescence signal from spleen after IV Fluc mRNA LNPs in CD1 mice (IVIS); settings: tail vein 1.0 mg/kg Day 0 and Day 2, imaging 18 hours after second dose, Table 5
B16F10 Cell Line = assay: Transfection of B16F10 Cell Line with FLuc mRNA LNPs (ONE-Glo EX luciferase signal); assay type: cell-based; settings: 200 ng Fluc mRNA-LNP, 24 hours
In short: as §1

MC38.K Cell Line = assay: Transfection of MC38.K Cell Line with FLuc mRNA LNPs (ONE-Glo EX luciferase signal); assay type: cell-based; settings: 200 ng Fluc mRNA-LNP, 24 hours; for Total Luciferin Signal (RLU) In Vitro-MC38: Table 5; for Total Luciferin Signal (RLU) In Vitro - MC38.K: Table 4
In short: as §1

Row | Compound | Total Luciferin Signal (RLU) In Vitro - AML12 (AML12 Cell Line; Table 5) [RLU] | Total Liver Tissue Luciferin Signal (Photons/s) In Vivo-Cd1 (Liver) [Photons/s] | Total Spleen Tissue Luciferin Signal (Photons/s) In Vivo-Cd1 (Spleen) [Photons/s] | Total Luciferin Signal (RLU) In Vitro - B16F10 (B16F10 Cell Line; Table 5) [RLU] | Total Luciferin Signal (RLU) In Vitro-MC38 (MC38.K Cell Line) [RLU] | Total Luciferin Signal (RLU) In Vitro - AML12 (AML12 Cell Line; Table 4) [RLU] | Total Liver Tissue Luciferin Signal (Photons/s) Ex-vivo - CD1 (Liver) [Photons/s] | Total Luciferin Signal (RLU) In Vitro - B16F10 (B16F10 Cell Line; Table 4) [RLU] | Total Luciferin Signal (RLU) In Vitro - MC38.K (MC38.K Cell Line) [RLU]
1 | CCCCCCCC/C=C\CCCCCCC1CN(CCCOC(=O)CCN(C)C)CC(CCCCCC/C=C\CCCCCCCC)O1 (centres unmarked) [Compound 96, 3-(2,6-di((Z)-hexadec-7-en-1-yl)morpholino)propyl 3-(dimethylamino)propanoate] | 1.49E+05 | 4.34E+06 | 6.35E+06 | 1.16E+05 | 1.25E+05 | – | – | – | –
2 | CCCCCCCCCCCCC1CN(CCO)CC(CCCCCCCCCCCC)O1 (centres unmarked) [Compound 90, 2-(2,6-didodecylmorpholino)ethan-1-ol] | 2.69E+04 | 3.35E+06 | 5.69E+05 | 8.93E+04 | – | – | – | – | –
3 | CCCCCCCC/C=C\CCCCCCC1CN(CCO)CC(CCCCCC/C=C\CCCCCCCC)O1 (centres unmarked) [Compound 92, 2-(2,6-di((Z)-hexadec-7-en-1-yl)morpholino)ethan-1-ol] | 2.46E+04 | 1.07E+07 | 2.05E+06 | 8.03E+05 | – | – | – | – | –
4 | CCCCCCCC/C=C\CCCCCCC1CN(CCOC(=O)CCN(C)C)CC(CCCCCC(=O)OC(CCCCCCCC)CCCCCCCC)O1 (centres unmarked) [Compound 97, heptadecan-9-yl (Z)-6-(4-(2-((3-(dimethylamino)propanoyl)oxy)ethyl)-6-(hexadec-7-en-1-yl)morpholin-2-yl)hexanoate] | 2.58E+05 | 2.08E+08 | 1.60E+07 | 2.98E+06 | 6.42E+05 | – | – | – | –
5 | CCCCCCCCC(CCCCCCCC)OC(=O)CCCCCC1CN(CCOC(=O)CCN(C)C)CC(CCCCCC(=O)OC(CCCCCCCC)CCCCCCCC)O1 (centres unmarked) [Compound 100, di(heptadecan-9-yl) 6,6′-(4-(2-((3-(dimethylamino)propanoyl)oxy)ethyl)morpholine-2,6-diyl)dihexanoate] | 1.43E+04 | 6.44E+09 | 2.92E+07 | 6.29E+04 | 3.18E+04 | – | – | – | –
6 | CCCCCCCC/C=C\CCCCCCC1CN(CCO)CC(CCCCCCCCCCCC)O1 (centres unmarked) [Compound 91, (Z)-2-(2-dodecyl-6-(hexadec-7-en-1-yl)morpholino)ethan-1-ol] | 1.94E+04 | 3.65E+06 | 1.44E+06 | 2.02E+05 | – | – | – | – | –
7 | CCCCCCCC/C=C\CCCCCCC1CN(CCOC(=O)CCCN(C)C)CC(CCCCCC/C=C\CCCCCCCC)O1 (centres unmarked) [Compound 93, 2-{2,6-bis[(Z)-7-hexadecenyl]-4-morpholinyl}ethyl 4-(dimethylamino)butyrate] | 3.05E+07 | 1.72E+06 | 2.48E+06 | 4.80E+05 | 3.69E+05 | – | – | – | –
8 | CCCCCCCC/C=C\CCCCCCC1CN(CCOC(=O)CCN(C)C)CC(CCCCCC/C=C\CCCCCCCC)O1 (centres unmarked) [Compound 95, 2-(2,6-di((Z)-hexadec-7-en-1-yl)morpholino)ethyl 3-(dimethylamino)propanoate] | 1.49E+05 | 2.92E+06 | 2.69E+06 | 2.09E+05 | 7.12E+04 | – | – | – | –
9 | CCCCCCCCCOC(=O)C(C)CCCCCCN(CCO)CCCCCCCC(=O)OC(CCCCCCCC)CCCCCCCC (centres unmarked) [Compound 37] | – | – | – | – | – | 7.63E+05 | 6.65E+09 | 2.66E+06 | 1.00E+06
10 | CCCCCCCCC(CCCCCCCCF)OC(=O)CCCCCCCN(CCO)CCCCCC(=O)OCCCCCCC(C)C (centres unmarked) [Compound 57, 1-fluoroheptadecan-9-yl 8-((2-hydroxyethyl)(6-((7-methyloctyl)oxy)-6-oxohexyl)amino)octanoate] | – | – | – | – | – | 2.63E+06 | 1.05E+10 | 1.27E+06 | 1.42E+07
11 | CCCCCCCCCC(=O)OCCCCCCCN(CCO)CCCCCCCOC(=O)C(CCCCCCCC)CCCCCCCF (centres unmarked) [Compound 27] | – | – | – | – | – | 3.02E+05 | 5.60E+09 | 6.19E+04 | 2.37E+05
12 | CCCCCCCCC(CCCCCCCC)C(=O)OCCCCCCCN(CCO)CCCCCCCOC(=O)CCCCCCCCC(C)C [Compound 14] | – | – | – | – | – | 2.94E+06 | 1.93E+09 | 5.12E+06 | 4.71E+06
13 | CCCCCCCC/C=C\CCCCCCC1CN(CCOC(=O)CCCN(C)C)CC(CCCCCC(=O)OC(CCCCCCCC)CCCCCCCC)O1 (centres unmarked) [Compound 94, heptadecan-9-yl (Z)-6-(4-(2-((4-(dimethylamino)butanoyl)oxy)ethyl)-6-(hexadec-7-en-1-yl)morpholin-2-yl)hexanoate] | 1.41E+06 | 1.30E+07 | 1.22E+07 | 2.82E+06 | 1.75E+06 | – | – | – | –
14 | CCCCCCCCC(CCCCCCCC)C(=O)OCCCCCCCN(CCCCCC(=O)OCCCCCCCCC(C)C)CCOC(=O)CCCN(C)CCO [Compound 8] | – | – | – | – | – | 1.43E+05 | 2.13E+08 | 9.69E+05 | 3.40E+06
15 | CCCCCCCCC(CCCCCCCC)C(=O)OCCCCCCCN(CCO)CCCCCCCOC(=O)CCCCCCCC=C(C)C [Compound 20] | – | – | – | – | – | 7.65E+05 | 7.61E+09 | 4.65E+05 | 7.88E+05
16 | CCCCCCCCC(CCCCCCCC)OC(=O)CCCCCCCN(CCO)CCCCCC(=O)OCCCCCCCCC(C)C [Compound 1] | – | – | – | – | – | 1.96E+06 | 9.00E+09 | 6.92E+06 | 7.83E+06
17 | CCCCCCCCCOC(=O)CCCCCCCN(CCCCCCC(C)C(=O)OC(CCCCCCCC)CCCCCCCC)CCOC(=O)CCCN(C)C (centres unmarked) [Compound 38, heptadecan-9-yl 8-((2-((4-(dimethylamino)butanoyl)oxy)ethyl)(8-(nonyloxy)-8-oxooctyl)amino)-2-methyloctanoate] | – | – | – | – | – | 1.22E+06 | 5.28E+07 | 2.75E+06 | 2.06E+06
18 | CCCCCCCCC(CCCCCCCCF)OC(=O)CCCCCN(CCCCO)CCCCCC(=O)OCCCCCCCCCCC(C)C (centres unmarked) [Compound 63, 1-fluoroheptadecan-9-yl 6-((4-hydroxybutyl)(6-((11-methyldodecyl)oxy)-6-oxohexyl)amino)hexanoate] | – | – | – | – | – | 5.69E+05 | 3.02E+09 | 6.91E+05 | 1.35E+07
19 | CCCCCCCCCOC(=O)CCCCCN(CCO)CCCCCCCC(=O)OC(CCCCCCCC)CCCCCCCF (centres unmarked) [Compound 25] | – | – | – | – | – | 1.09E+05 | 2.05E+09 | 4.43E+05 | 9.18E+05
20 | CCCCCCCCC(CCCCCCCF)OC(=O)CCCCCCCN(CCO)CCCCCC(=O)OC(CCCCCCCC)CCCCCCCC (centres unmarked) [Compound 29] | – | – | – | – | – | 8.52E+04 | 7.57E+09 | 8.63E+05 | 2.97E+05
